Assay [1] deals with HeLa. Nature of the assay: The compound was evaluated for its inhibitory activity against HeLa S3 cells in the presence of photoirradiation. The assay is classed as functional, cell-based. As to conditions: Homo sapiens, light or radiation study.
For assay [2], the system named is HeLa. Nature of the assay: The compound was evaluated for its inhibitory activity against HeLa S3 cells in the absence of photoirradiation. In kind it is functional, cell-based. As to conditions: Homo sapiens, light or radiation study.

Data on 3 compounds can be found in ChEMBL document CHEMBL1132738, “Carbohydrate-modulated DNA photocleavage: design, synthesis, and evaluation of novel glycosyl anthraquinones” (Bioorg Med Chem Lett, 2000).

The structures appear in SMILES notation.

With `C[C@@H]1O[C@@H](OCc2ccc3c(c2O)C(=O)c2ccccc2C3=O)C[C@@H](N(C)C)[C@@H]1O`, the IC50 in assay [1] was 1.9 µM; in assay [2], 8.8 µM.
In the case of `C[C@@H]1O[C@H](OCc2ccc3c(c2O)C(=O)c2ccccc2C3=O)C[C@@H](N(C)C)[C@@H]1O`, the IC50 in assay [1] was 4.3 µM; in assay [2], 13 µM.
The corresponding values for `CC1OC(c2ccc3c(c2O)C(=O)c2ccccc2C3=O)CC(N(C)C)C1O` (stereo unspecified) are 4.8 µM and 9 µM.
